Laboratory results as given in ChEMBL document CHEMBL3885861, “Open TG-GATES”.

Species: Rattus norvegicus
Test: Open TG-GATES - Regimen: Daily Repeat
Format: toxicity, organism-based, Sprague-Dawley
Design: regimen Daily Repeat, gender Male, age 6 weeks
Conditions: in vivo, po, 1000 mg/kg, route gavage, dose level High; for APTT / Bas / Eos / Fbg / Hb / Ht / Lym / MCH / MCHC / MCV / Mono / Neu / PT / Plat / RBC / Ret / WBC: tissue Blood; for KIDNEY_L / KIDNEY_R / KIDNEY_TOTAL: tissue Kidney; for LIVER: tissue Liver; for A/G / ALP / ALT / AST / BUN / CRE / Ca / Cl / DBIL / GLC / IP / K / LDH / Na / PL / RALB / TBIL / TC / TG / TP / gamma-GTP: tissue Plasma

Structure (SMILES): CCOC(=O)CCC(=O)O[C@H]1[C@H](O[C@@H]2[C@@H](C)[C@H](O[C@H]3C[C@@](C)(OC)[C@@H](O)[C@H](C)O3)[C@@H](C)C(=O)O[C@H](CC)[C@@](C)(O)[C@H](O)[C@@H](C)C(=O)[C@H](C)C[C@@]2(C)O)O[C@H](C)C[C@@H]1N(C)C [ERYTHROMYCIN ETHYLSUCCINATE]
- TERMINAL_BW (72 h, time 3 day): 226.1 g
- APTT (72 h, time 3 day): 20.6 s
- Bas (72 h, time 3 day): 0%
- Eos (72 h, time 3 day): 1%
- Fbg (72 h, time 3 day): 325 mg/dL
- Hb (72 h, time 3 day): 14.4 g/dL
- Ht (72 h, time 3 day): 41.8%
- Lym (72 h, time 3 day): 86.4%
- MCH (72 h, time 3 day): 21.2 pg
- MCHC (72 h, time 3 day): 34.4%
- MCV (72 h, time 3 day): 61.6 fL
- Mono (72 h, time 3 day): 3%
- Neu (72 h, time 3 day): 8.6%
- PT (72 h, time 3 day): 15.7 s
- Plat (72 h, time 3 day): 125 x10_4/uL
- RBC (72 h, time 3 day): 679.6 x10_4/ul
- Ret (72 h, time 3 day): 3.4%
- WBC (72 h, time 3 day): 68.6 x10_2/uL
- KIDNEY_L (72 h, time 3 day): 1 g
- KIDNEY_R (72 h, time 3 day): 1 g
- KIDNEY_TOTAL (72 h, time 3 day): 2 g
- LIVER (72 h, time 3 day): 9.5 g
- A/G (72 h, time 3 day): 1.2
- ALP (72 h, time 3 day): 1860.4 IU/L
- ALT (72 h, time 3 day): 38.2 IU/L
- AST (72 h, time 3 day): 67.4 IU/L
- BUN (72 h, time 3 day): 17 mg/dL
- CRE (72 h, time 3 day): 0.2 mg/dL
- Ca (72 h, time 3 day): 10.5 mg/dL
- Cl (72 h, time 3 day): 108.4 meq/L
- DBIL (72 h, time 3 day): 0.002 mg/dL
- GLC (72 h, time 3 day): 178 mg/dL
- IP (72 h, time 3 day): 7.2 mg/dL
- K (72 h, time 3 day): 4.2 meq/L
- LDH (72 h, time 3 day): 198.2 IU/L
- Na (72 h, time 3 day): 141.8 meq/L
- PL (72 h, time 3 day): 155.6 mg/dL
- RALB (72 h, time 3 day): 3.1 g/dL
- TBIL (72 h, time 3 day): 0.032 mg/dL
- TC (72 h, time 3 day): 95.2 mg/dL
- TG (72 h, time 3 day): 58.4 mg/dL
- TP (72 h, time 3 day): 5.7 g/dL
- gamma-GTP (72 h, time 3 day): 1.4 IU/L
- TERMINAL_BW ([…], time 7 day): 250.4 g
- TERMINAL_BW ([…], time 14 day): 298.7 g
- TERMINAL_BW ([…], time 28 day): 358.6 g
- APTT ([…], time 7 day): 21.4 s
- Bas ([…], time 7 day): 0%
- Eos ([…], time 7 day): 1%
- Fbg ([…], time 7 day): 338.6 mg/dL
- Hb ([…], time 7 day): 13.6 g/dL
- Ht ([…], time 7 day): 40.3%
- Lym ([…], time 7 day): 81.6%
- MCH ([…], time 7 day): 20.5 pg
- MCHC ([…], time 7 day): 33.9%
- MCV ([…], time 7 day): 60.4 fL
- Mono ([…], time 7 day): 2.2%
- Neu ([…], time 7 day): 14%
- PT ([…], time 7 day): 16.6 s
- Plat ([…], time 7 day): 112.5 x10_4/uL
- RBC ([…], time 7 day): 666.4 x10_4/ul
- Ret ([…], time 7 day): 3.8%
- WBC ([…], time 7 day): 93.3 x10_2/uL
- APTT ([…], time 14 day): 20.5 s
- Bas ([…], time 14 day): 0%
- Eos ([…], time 14 day): 0.8%
- Fbg ([…], time 14 day): 327.6 mg/dL
- Hb ([…], time 14 day): 14.2 g/dL
- Ht ([…], time 14 day): 40.6%
- Lym ([…], time 14 day): 83%
- MCH ([…], time 14 day): 20.5 pg
- MCHC ([…], time 14 day): 34.8%
- MCV ([…], time 14 day): 59 fL
- Mono ([…], time 14 day): 3.2%
- Neu ([…], time 14 day): 11.4%
- PT ([…], time 14 day): 16.2 s
- Plat ([…], time 14 day): 107.4 x10_4/uL
- RBC ([…], time 14 day): 690 x10_4/ul
- Ret ([…], time 14 day): 4.6%
- WBC ([…], time 14 day): 91.9 x10_2/uL
- APTT ([…], time 28 day): 24.9 s
- Bas ([…], time 28 day): 0%
- Eos ([…], time 28 day): 1%
- Fbg ([…], time 28 day): 340.4 mg/dL
- Hb ([…], time 28 day): 15.2 g/dL
- Ht ([…], time 28 day): 43.7%
- Lym ([…], time 28 day): 82.4%
- MCH ([…], time 28 day): 18.9 pg
- MCHC ([…], time 28 day): 34.7%
- MCV ([…], time 28 day): 54.3 fL
- Mono ([…], time 28 day): 2.2%
- Neu ([…], time 28 day): 12.6%
- PT ([…], time 28 day): 16.3 s
- Plat ([…], time 28 day): 102.9 x10_4/uL
- RBC ([…], time 28 day): 804.4 x10_4/ul
- Ret ([…], time 28 day): 2.3%
- WBC ([…], time 28 day): 79.8 x10_2/uL
- KIDNEY_L ([…], time 7 day): 1.1 g
- KIDNEY_R ([…], time 7 day): 1.1 g
- KIDNEY_TOTAL ([…], time 7 day): 2.2 g
- KIDNEY_L ([…], time 14 day): 1.2 g
- KIDNEY_R ([…], time 14 day): 1.2 g
- KIDNEY_TOTAL ([…], time 14 day): 2.4 g
- KIDNEY_L ([…], time 28 day): 1.4 g
- KIDNEY_R ([…], time 28 day): 1.4 g
- KIDNEY_TOTAL ([…], time 28 day): 2.8 g
- LIVER ([…], time 7 day): 10.1 g
- LIVER ([…], time 14 day): 12.3 g
- LIVER ([…], time 28 day): 13.8 g
- A/G ([…], time 7 day): 1.1
- ALP ([…], time 7 day): 1998.2 IU/L
- ALT ([…], time 7 day): 35.2 IU/L
- AST ([…], time 7 day): 71.8 IU/L
- BUN ([…], time 7 day): 18.2 mg/dL
- CRE ([…], time 7 day): 0.2 mg/dL
- Ca ([…], time 7 day): 10.5 mg/dL
- Cl ([…], time 7 day): 108.2 meq/L
- DBIL ([…], time 7 day): 0 mg/dL
- GLC ([…], time 7 day): 188.6 mg/dL
- IP ([…], time 7 day): 7.4 mg/dL
- K ([…], time 7 day): 4.1 meq/L
- LDH ([…], time 7 day): 156.6 IU/L
- Na ([…], time 7 day): 141.8 meq/L
- PL ([…], time 7 day): 155 mg/dL
- RALB ([…], time 7 day): 2.8 g/dL
- TBIL ([…], time 7 day): 0.01 mg/dL
- TC ([…], time 7 day): 84.8 mg/dL
- TG ([…], time 7 day): 97.6 mg/dL
- TP ([…], time 7 day): 5.4 g/dL
- gamma-GTP ([…], time 7 day): 1.6 IU/L
- A/G ([…], time 14 day): 1.1
- ALP ([…], time 14 day): 1716 IU/L
- ALT ([…], time 14 day): 36 IU/L
- AST ([…], time 14 day): 68.8 IU/L
- BUN ([…], time 14 day): 19.6 mg/dL
- CRE ([…], time 14 day): 0.2 mg/dL
- Ca ([…], time 14 day): 10.7 mg/dL
- Cl ([…], time 14 day): 108.6 meq/L
- DBIL ([…], time 14 day): 0 mg/dL
- GLC ([…], time 14 day): 187 mg/dL
- IP ([…], time 14 day): 6.6 mg/dL
- K ([…], time 14 day): 4.4 meq/L
- LDH ([…], time 14 day): 161 IU/L
- Na ([…], time 14 day): 142 meq/L
- PL ([…], time 14 day): 163.2 mg/dL
- RALB ([…], time 14 day): 2.9 g/dL
- TBIL ([…], time 14 day): 0.006 mg/dL
- TC ([…], time 14 day): 88.8 mg/dL
- TG ([…], time 14 day): 140.8 mg/dL
- TP ([…], time 14 day): 5.6 g/dL
- gamma-GTP ([…], time 14 day): 1.8 IU/L
- A/G ([…], time 28 day): 1.1
- ALP ([…], time 28 day): 1257.4 IU/L
- ALT ([…], time 28 day): 37 IU/L
- AST ([…], time 28 day): 67.6 IU/L
- BUN ([…], time 28 day): 19.2 mg/dL
- CRE ([…], time 28 day): 0.2 mg/dL
- Ca ([…], time 28 day): 10.4 mg/dL
- Cl ([…], time 28 day): 108.8 meq/L
- DBIL ([…], time 28 day): 0.002 mg/dL
- GLC ([…], time 28 day): 173 mg/dL
- IP ([…], time 28 day): 6.9 mg/dL
- K ([…], time 28 day): 4.1 meq/L
- LDH ([…], time 28 day): 132.8 IU/L
- Na ([…], time 28 day): 141.8 meq/L
- PL ([…], time 28 day): 138 mg/dL
- RALB ([…], time 28 day): 3 g/dL
- TBIL ([…], time 28 day): 0.012 mg/dL
- TC ([…], time 28 day): 75.2 mg/dL
- TG ([…], time 28 day): 99.6 mg/dL
- TP ([…], time 28 day): 5.7 g/dL
- gamma-GTP ([…], time 28 day): 1.6 IU/L
